According to US20050228016A1, “TETRAHYDROQUINOLINES FOR MODULATING THE EXPRESSION OF EXOGENOUS GENES VIA AN ECDYSONE RECEPTOR COMPLEX” (priority 2002, published 2005):

Legend:
[1] = biological target: T1, Gal4DBD/AaEcR (DEF) (Aedes aegypti, UniProt P49880); experiment: cell-based; format: cell-based; details: for fold induction at 33 µM: NIH3T3, read-out: Fold Induction Average, AA_3T3V1 Assay 33 μM; for Fold Induction Average, AA_3T3V1 Assay 33 μM: 3T3 cells, 48 h, average of two wells
T1 construct: The wildtype D, E, and F domains from mosquito Aedes aegypti EcR; expressed in transfected cells; host or cells: 3T3 cells
Summary of the method: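 Mouse 3T3 cells transiently co-transfected with Gal4DBD/AaEcR (DEF) and pFRLuc (5× GAL4 response element, firefly luciferase reporter). Ligand added in serum medium 4 h after transfection; single-dose testing at 33 μM.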

[2] = biological target: T2, Bombyx mori EcR (VP16-BmEcR, CVBE) (Bombyx mori, UniProt P49881); experiment: Z3 assay (HEK-293 clone Z3 with CVBE and 6x EcRE LacZ, β-galactosidase reporter); format: cell-based; details: average of two wells; for fold induction at 33 µM: HEK293, 48 h, read-out: Fold Induction Average, Z3V1 Assay 33 μM; for Fold Induction Average, Z3V1 Assay 33 μM: 48 h
T2 construct: expressed in transfected cells
T2 sequence (P49881 86-606): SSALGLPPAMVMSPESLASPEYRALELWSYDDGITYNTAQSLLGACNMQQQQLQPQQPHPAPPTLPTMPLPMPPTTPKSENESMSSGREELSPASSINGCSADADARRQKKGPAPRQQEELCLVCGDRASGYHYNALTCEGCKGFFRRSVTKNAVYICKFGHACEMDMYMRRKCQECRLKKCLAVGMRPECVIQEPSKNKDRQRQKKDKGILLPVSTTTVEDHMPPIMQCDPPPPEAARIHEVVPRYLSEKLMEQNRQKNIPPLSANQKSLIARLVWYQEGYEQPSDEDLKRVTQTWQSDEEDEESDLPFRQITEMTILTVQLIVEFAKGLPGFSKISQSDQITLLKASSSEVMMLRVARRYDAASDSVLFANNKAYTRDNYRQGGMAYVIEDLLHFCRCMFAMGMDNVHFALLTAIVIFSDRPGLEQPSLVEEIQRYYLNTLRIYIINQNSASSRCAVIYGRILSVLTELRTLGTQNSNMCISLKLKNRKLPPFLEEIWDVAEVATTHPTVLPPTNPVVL

[3] = system: CfEcR + LmUSP; details: CfEcR + LmUSP in 3T3 cells, reporter assayed 48 h after ligand
Protocol: 1.9—Gal4CfEcR-DEF/VP16LmRXR-EF: This construct was prepared in the same way as switch 1.1 except LmRXR-EF (SEQ ID NO: 18) was used in place of HsRXRβ-LmRXREF chimera.
(§1) To determine if any of the compounds shown in Table 1 and Table 2 can act as inducers of reporter gene activity in a transactivation assay, these compounds were tested in NIH3T3 cells transfected with pFRLUC reporter and gene expression cassettes, 1.1 to 1.8 described in Example 1. […] At 48 hr after adding ligand, the cells were harvested and reporter activity was assayed using Dual Luciferase assay kit (Promega carporation). Total relative light units (RLU) are shown. Standard methods for culture and maintenance of the cells were followed.
(§2) Transfections: DNAs corresponding to the various switch constructs outlined in Example I, specifically switches 1.1 through 1.8, were transfected into mouse NIH3T3 cells (ATCC) as follows. Cells were harvested when they reached 50% confluency and plated in 6-, 12- or 24-well plates at 125,000, 50,000, or 25,000 cells, respectively, in 2.5, 1.0, or 0.5 ml of growth medium containing 10% fetal bovine serum (FBS), respectively. The next day, the cells were rinsed with growth medium and transfected for four hours. […] For 12-well plates, 4 μl of Superfect™ was mixed with 100 μl of growth medium. 1.0 μg of reporter construct and 0.25 μg of each receptor construct of the receptor pair to be analyzed were added to the transfection mix. A second reporter construct was added [pTKRL (Promega), 0.1 μg/transfection mix] that comprises a Renilla luciferase gene operably linked and placed under the control of a thymidine kinase (TK) constitutive promoter and was used for normalization. The contents of the transfection mix were mixed in a vortex mixer and let stand at room temperature for 30 min. At the end of incubation, the transfection mix was added to the cells maintained in 400 μl growth medium. The cells were maintained at 37° C. and 5% CO2 for four hours. At the end of incubation, 500 μl of growth medium containing 20% FBS and either dimethylsulfoxide (DMSO; control) or a DMSO solution of 0.1, 1, and 10 μM ligand was added and the cells were maintained at 37° C. and 5% CO2 for 48 hours. The cells were harvested and reporter activity was assayed. The same procedure was followed for 6 and 24 well plates as well except all the reagents were doubled for 6 well plates and reduced to half for 24-well plates.
(§3) Ligands: All ligands were dissolved in DMSO and the final concentration of DMSO was maintained at 0.1% in both controls and treatments.
(§4) Reporter Assays: Cells were harvested 48 hours after adding ligands. 125, 250, or 500 μl of passive lysis buffer (part of Dual-luciferase™ reporter assay system from Promega Corporation) were added to each well of 24- or 12- or 6-well plates respectively. The plates were placed on a rotary shaker for 15 minutes. Twenty μl of lysate were assayed. Luciferase activity was measured using Dual-luciferase™ reporter assay system from Promega Corporation following the manufacturer's instructions.

[4] = biological target: T3, DmEcR + LmUSP (Drosophila melanogaster, UniProt P34021); experiment: cell-based; details: for fold induction at 10 µM: NIH3T3, read-out: Fold Induction (10 μM); for fold induction at 100 µM: NIH3T3, read-out: Fold Induction (100 μM)
T3 sequence (P34021 342-878): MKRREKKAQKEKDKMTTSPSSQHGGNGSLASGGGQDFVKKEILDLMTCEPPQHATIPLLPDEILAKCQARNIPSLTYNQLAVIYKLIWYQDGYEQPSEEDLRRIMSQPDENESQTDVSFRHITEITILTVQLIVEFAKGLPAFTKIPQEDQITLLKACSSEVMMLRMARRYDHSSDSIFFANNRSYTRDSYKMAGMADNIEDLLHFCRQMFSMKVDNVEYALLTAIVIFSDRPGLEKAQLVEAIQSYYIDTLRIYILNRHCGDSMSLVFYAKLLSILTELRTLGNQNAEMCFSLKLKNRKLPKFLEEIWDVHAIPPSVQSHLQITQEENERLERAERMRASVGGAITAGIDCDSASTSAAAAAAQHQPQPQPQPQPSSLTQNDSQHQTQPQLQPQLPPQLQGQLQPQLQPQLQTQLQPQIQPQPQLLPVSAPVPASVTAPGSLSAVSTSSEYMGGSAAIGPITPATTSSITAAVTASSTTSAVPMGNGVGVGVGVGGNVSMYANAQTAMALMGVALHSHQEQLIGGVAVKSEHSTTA
Protocol: as §1, §2, §3, §4

[5] = biological target: T4, GAL4AaEcR-DEF/VP16HsRXRβ-EF (Aedes aegypti, UniProt P49880); experiment: Transactivation reporter assay, AaEcR based switch (1.4) in NIH3T3 cells; format: cell-based; details: mammalian cells; FIGS. 2-5
T4 construct: expressed in transfected cells; host or cells: mouse NIH3T3 cells
T4 sequence (P49880 405-776 limits assumed): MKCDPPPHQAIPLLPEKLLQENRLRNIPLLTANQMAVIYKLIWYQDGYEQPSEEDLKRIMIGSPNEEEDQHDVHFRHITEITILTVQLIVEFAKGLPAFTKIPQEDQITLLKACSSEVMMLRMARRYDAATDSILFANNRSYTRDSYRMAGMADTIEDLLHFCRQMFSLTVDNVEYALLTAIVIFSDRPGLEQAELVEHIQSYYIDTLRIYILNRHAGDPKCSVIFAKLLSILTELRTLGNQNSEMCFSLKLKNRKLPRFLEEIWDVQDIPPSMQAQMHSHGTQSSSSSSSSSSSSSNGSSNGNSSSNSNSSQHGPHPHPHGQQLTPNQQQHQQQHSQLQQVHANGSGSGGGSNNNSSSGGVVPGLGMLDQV
T4 sequence (P28702 299-533 partner limits assumed): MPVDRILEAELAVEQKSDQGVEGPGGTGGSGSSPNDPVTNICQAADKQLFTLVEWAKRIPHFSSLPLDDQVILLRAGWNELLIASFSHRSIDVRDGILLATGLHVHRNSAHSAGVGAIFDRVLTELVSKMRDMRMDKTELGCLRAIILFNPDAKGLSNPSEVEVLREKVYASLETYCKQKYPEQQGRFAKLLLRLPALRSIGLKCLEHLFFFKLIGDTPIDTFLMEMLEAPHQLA
Protocol: Total relative light units (RLU) are shown.
Twenty μl of lysate were assayed.

[6] = system: GAL4 DBD-CfEcR(DEF)/VP16AD-MmRXRE; details: CHO 13B3 clone, 48 h, average of two wells
Description: GAL4 DBD-CfEcR(DEF)/VP16AD-MmRXRE: The wild-type D, E, and F domains from spruce budworm Choristoneura fumiferana EcR (“CfEcR-DEF”; SEQ ID NO: 1) were fused to a GAL4 DNA binding domain (“Gal4DBD1-147”; nucleotides 31 to 471 of SEQ ID NO: 2) and placed under the control of the SV40e promoter of pM vector (PT3119-5, Clontech, Palo Alto, Calif.). The D and E domains from Mus Musculus RXR (“MmRXR-DE”; SEQ ID NO: 22) were fused to the transactivation domain from VP16 (“VP16AD”; SEQ ID NO: 5) and placed under the control of the SV40e promoter of the pVP16 vector (PT3127-5, Clontech, Palo Alto, Calif.).
CHO cells were transiently transfected with transcription cassettes for GAL4 DBD-CfEcR(DEF) and for VP16AD-MmRXRE controlled by SV40e promoters. Stably transfected cells were selected using Hygromycin. Individually isolated CHO cell clones were transiently transfected with a GAL4 RE-luciferase reporter (pFR-Luc, Stratagene, La Jolla, Calif.). The 13B3 clone was selected using Zeocin.
Cells were trypsinized and diluted to a concentration of 2.5×10^4 cells mL. 100 μL of cell suspension was placed in each well of a 96 well plate and incubated at 37° C. under 5% CO2 for 24 h. Ligand stock solutions were prepared in DMSO and diluted 300 fold for all treatments.
Luciferase reporter gene expression was measured 48 h after cell treatment using Bright-Glo™ Luciferase Assay System from Promega (E2650). Luminescence was detected at room temperature using a Dynex MLX microtiter plate luminometer.
Each assay was conducted in two separate wells, and the two values were averaged. Fold inductions were calculated by dividing relative light units (“RLU”) in ligand treated cells with RLU in DMSO treated cells.

Compound | fold induction at 33 µM [1] | fold induction at 33 µM [2] | Fold Induction (10 μM) [3] [fold] | fold induction at 10 µM [4] | fold induction at 100 µM [4] | Activity on AaEcR based switches [5] | Fold Induction Average, 13B3V1 Assay 33 μM [6] [fold] | Fold Induction Average, AA_3T3V1 Assay 33 μM [1] [fold] | Fold Induction Average, Z3V1 Assay 33 μM [2] [fold]
C[C@H]1C[C@H](Nc2ccc(F)cc2)c2cc(F)ccc2N1C(=O)c1ccc(F)c(Cl)c1 (relative stereo) [Compound I-6, trans-1-(3-chloro-4-fluorobenzoyl)-6-fluoro-2-methyl-4-(4-fluoroanilino)-1,2,3,4-tetrahydroquinoline] | 86 | 1 | 2 | 2 | 4 | – | – | – | –
Cc1cc(C(=O)N2c3ccc(F)cc3[C@@H](Nc3ccc(F)cc3)C[C@@H]2C)ccc1F (relative stereo) [Compound I-13] | – | – | – | – | – | very active | 4 | 189 | 105
Cc1ccc(C(=O)N2c3ccc(F)cc3[C@H](Nc3ccc(F)cc3)C[C@@H]2C)cc1F (relative stereo) [Compound I-14] | – | – | – | – | – | very active | 2 | 518 | 7
C[C@@H]1C[C@H](Nc2ccc(F)cc2)c2cc(F)ccc2N1C(=O)c1ccc(F)c(Cl)c1 (relative stereo) [Compound I-7, cis-1-(3-chloro-4-fluorobenzoyl)-6-fluoro-2-methyl-4-(4-fluoroanilino)-1,2,3,4-tetrahydroquinoline] | 357 | 32 | 94 | 14 | 8 | – | – | – | –
